{
  "source": "paper PMC12654037",
  "about": "“Norditerpene Natural Products from Subterranean Fungi with Anti-Parasitic Activity” (Microorganisms, 2025)",
  "key": {"[1]": {"tested_on": "C. parvum", "test": "C. parvum growth inhibition assay (Cp-NLuc-infected HCT-8 cells)", "assay_type": "cell-based, Cryptosporidium parvum", "conditions": "Cryptosporidium parvum", "description": "C. parvum growth inhibition assays: The in vitro growth inhibition assay of C. parvum has been previously described. Briefly, clear-bottom, white-sided 96 well plates were seeded with HCT-8 cells. Once the cells reached between 50% and 75% confluency, they were infected with Cp-NLuc oocysts (10,000/well) in complete media containing 0.6% taurocholate. At 24 h post-infection (hpi), the infected cells were treated with compounds at various concentrations. DMSO was used as a vehicle control in parallel. Parasite growth was determined at 72 hpi by measuring relative luminescence units (RLUs) using Promega Nano-Glo substrate (Promega, Madison, WI, USA) and a SpectraMax® L Microplate Reader (Molecular Devices, San Jose, CA, USA). The percent inhibition of parasite growth was calculated as [(RLUDMSO − RLUcompound)/RLUDMSO] × 100."}, "[2]": {"test": "in vitro", "assay_type": "in vitro ADME", "conditions": "plasma", "description": "Plasma stability assay. The plasma stability assay was performed in duplicate by incubating each selected compound (1 µmol/L final concentration) in normal mouse (CD-1) or human plasma (Innovative Research, Novi, MI, USA) at 37 °C."}, "[3]": {"test": "Microsomal stability assay, human", "conditions": "microsomes, pH 7.4", "description": "Microsomal stability assay. The in vitro microsomal stability assay was conducted in duplicate in commercially available mouse or human liver microsomes (Sekisui XenoTech, Kansas City, KS, USA), which were supplemented with nicotinamide adenine dinucleotide phosphate (NADPH) as a cofactor. […] The reaction was initiated by the addition of 1 mmol/L NADPH, followed by incubation at 37 °C. A negative control was performed in parallel without NADPH to reveal any chemical instability or non-NADPH dependent enzymatic degradation for each compound. […] At various time points (0, 5, 15, 30, and 60 min), a 40 µL of reaction aliquot was taken and quenched with 120 µL of acetonitrile containing 0.1% formic acid. The samples were then vortexed and centrifuged at 15,000 rpm for 5 min at 4 °C. The supernatants were collected and analyzed by LC-MS/MS to determine the in vitro metabolic half-life (t1/2)."}, "[4]": {"tested_on": "Cp-NLuc", "test": "C. parvum -static versus -cidal washout assay", "assay_type": "cell-based, Cryptosporidium parvum", "description": "To determine -static versus -cidal activity, the infection assay was conducted as described, but infected cells were treated with compounds for 30 min up to 24 h. The compounds were removed after the designated times, and infection was quantified at 72 h post-infection. To determine the activity of the compounds against asexual and sexual stages of the parasite, compounds were added for 4 h windows at times corresponding to asexual or sexual development. Parasite proliferation was then determined at 72 h post-infection. For all assays, each sample was run in triplicate, and three biological replicates were performed."}, "[5]": {"tested_on": "TgRH-Luc:GFP", "test": "T. gondii -static versus -cidal washout assay", "assay_type": "cell-based, Toxoplasma gondii", "conditions": "for treatment time after which T. gondii did not recover (killing time): at EC90 15 µM, compound washed out, read 48 h post-infection", "description": "T. gondii growth inhibition assays: The T. gondii inhibition assay was described previously. Briefly, HFF cells were seeded onto white-sided, clear-bottom 96 well plates, grown to confluence, and then 5000 TgRH-Luc:GFP parasites were added to each well. At 24 hpi, compounds or DMSO were added. The growth of the parasites was determined by relative luminescence at 48 hpi using Promega Bright-Glo (Promega, Madison, WI, USA) substrate. Plates were read, and the percent inhibition of parasite growth was calculated as described above. Determination of -static versus -cidal activity was conducted as indicated above, with parasite growth quantified after 48 h of infection. Each sample was run in triplicate, and each experiment was repeated three times."}, "[6]": {"tested_on": "C. parvum intracellular stages", "test": "C. parvum immunofluorescence assay", "assay_type": "cell-based, Cryptosporidium parvum", "conditions": "7.5 µM, 20 h", "description": "C. parvum and T. gondii immunofluorescence assays (IFAs): IFAs were conducted as previously described with modifications. For C. parvum IFAs, HCT-8 cells were seeded on 4-well chamber cell culture glass slides (CELLTREAT Scientific Product, Pepperell, MA, USA). At confluency, the cell monolayers were infected with 5 × 10^5 wild-type (WT) C. parvum oocysts prepared as previously described. Slides were spun at 1000 rpm for 3 min to allow oocysts to have full contact with the cell monolayers. At 4 hpi, 7.5 µM oidiolactone A or DMSO control, diluted in medium containing 0.6% taurocholic acid, was added to the infected cells for 20 h. At 24 hpi, the slides were fixed with 4% paraformaldehyde and permeabilized with 0.25% Triton-X. The slides were then blocked with 10% goat serum in 1x PBS. C. parvum intracellular stages were visualized with Sporo-glo (Waterborne inc., New Orleans, LA, USA). The slides were mounted using VECTASHIELD® PLUS Antifade Mounting Medium with DAPI (Vector Laboratories, Inc., Newark CA, USA). Representative images of the samples were taken using the Nikon AX R confocal microscope and Nikon Elements acquisition software. Image processing was performed using Fiji v1.54p."}, "[7]": {"tested_on": "T. gondii intracellular stages", "test": "T. gondii immunofluorescence assay", "assay_type": "cell-based, Toxoplasma gondii", "conditions": "7.5 µM, 24 h", "description": "For T. gondii IFAs, confluent HFF cells in 4-well chamber cell culture glass slides were infected with either 5 × 10^4 or 1 × 10^5 parasites/mL. At 6 hpi, 7.5 µM oidiolactone A or DMSO control was diluted in culture medium and added to the slides for 24 h. The slides were then fixed with 4% paraformaldehyde and permeabilized with 0.25% Triton-X. The slides were blocked with 3% goat serum in 0.25% Triton-X. The parasites were visualized with anti-T. gondii SAG1 and Alexa Fluor 594 goat anti-rabbit antibody. The slides were mounted, and images were acquired as described above and processed with NIS Elements GA3 (general analysis 3)."}, "[8]": {"tested_on": "P. falciparum 3D7", "test": "Plasmodium falciparum growth inhibition assay (SYBR Green I), 3D7", "conditions": "3D7, 72 h, read-out: EC50 3D7(M)", "protocol": "Plasmodium falciparum growth inhibition assay: Antiplasmodial EC50 results were determined using a fluorescence-based SYBR Green I assay performed using asynchronous cultures [30, 35]. […] Plates were subsequently frozen at −80 °C to facilitate lysis. […] Relative fluorescence units (RFUs) were normalized based on chloroquine-treated and no treatment controls. Serial dilutions of compounds were prepared in RPMI with final assay conditions of ≤0.2% DMSO. Each assay was conducted in triplicate with three biological replicates."}},
  "note": "Like-named read-outs stand apart in the source and are kept apart here.",
  "data": [
    {"smiles": "CO[C@H]1OC(=O)C=C2[C@@]13O[C@@H]3[C@H]1OC(=O)[C@@]3(C)CCC[C@@]2(C)[C@@H]13", "note": "[compound 1, oidiolactone A]", "values": [
      {"measurement": "EC50", "setting": "[1]; HCT-8, read-out: EC50 against C. parvum", "value": 0.53, "unit": "µM"},
      {"measurement": "EC50", "setting": "[1]; Cp-NLuc-infected HCT-8 cells, 7.5 µM to 117 nM, Figure 2E, read-out: C. parvum EC50", "value": 0.529, "unit": "µM"},
      {"measurement": "half-life at 1 µmol/L", "setting": "[2]; CD-1, mouse, 1 µmol/L, 37 °C, mean ± SD, read-out: Mouse Plasma Stability t½", "value": "1.76 ± 0.0283", "unit": "h"},
      {"measurement": "half-life at 1 µmol/L", "setting": "[2]; CD-1, mouse, discussion, read-out: half-life in mouse blood plasma", "value": "< 2", "unit": "h"},
      {"measurement": "half-life at 1 µmol/L", "setting": "[2]; human, 37 °C, mean ± SD, read-out: Human Plasma Stability t½", "value": "0.2917 ± 0.00167", "unit": "h"},
      {"measurement": "half-life at 1 µmol/L", "setting": "[3]", "value": "5.29 ± 0.278", "unit": "h"},
      {"measurement": "EC90", "setting": "[4]; Cryptosporidium parvum", "value": 7.5, "unit": "µM"},
      {"measurement": "treatment time after which C. parvum did not recover (killing time)", "setting": "[4]; at EC90 7.5 µM, compound washed out, read 72 h post-infection", "value": "8 to 12", "unit": "h"},
      {"measurement": "EC90", "setting": "[5]; Toxoplasma gondii", "value": 15, "unit": "µM"},
      {"measurement": "treatment time after which T. gondii did not recover (killing time)", "setting": "[5]; listed as Oidiolactone A", "value": "≤ 24", "unit": "h"},
      {"measurement": "treatment time after which T. gondii did not recover (killing time)", "setting": "[5]; listed as oidiolactone A", "value": "8 to 12", "unit": "h"},
      {"measurement": "abundance of treated C. parvum parasites by IFA", "setting": "[6]", "value": "much lower abundances"},
      {"measurement": "abundance of treated T. gondii parasites by IFA", "setting": "[7]", "value": "much lower abundances"},
      {"measurement": "EC50", "setting": "[8]", "value": "3.33e-06 ± 6.4e-07", "unit": "M"}
    ]}
  ]
}
